For 29 compounds, IC50 results are on record in patent publication US20050009894A1 (Aventis Pharma S.A., priority 2001, published 2005).

The target in this assay is T1, human KDR enzyme (Homo sapiens, UniProt P35968).
T1 construct: The cytoplasmic domain of human KDR enzyme is cloned in the form of a GST fusion; GST; made in house; host or cells: SF21 insect cells (baculovirus, pFastBac)
T1 sequence (P35968 786-1356 limits assumed): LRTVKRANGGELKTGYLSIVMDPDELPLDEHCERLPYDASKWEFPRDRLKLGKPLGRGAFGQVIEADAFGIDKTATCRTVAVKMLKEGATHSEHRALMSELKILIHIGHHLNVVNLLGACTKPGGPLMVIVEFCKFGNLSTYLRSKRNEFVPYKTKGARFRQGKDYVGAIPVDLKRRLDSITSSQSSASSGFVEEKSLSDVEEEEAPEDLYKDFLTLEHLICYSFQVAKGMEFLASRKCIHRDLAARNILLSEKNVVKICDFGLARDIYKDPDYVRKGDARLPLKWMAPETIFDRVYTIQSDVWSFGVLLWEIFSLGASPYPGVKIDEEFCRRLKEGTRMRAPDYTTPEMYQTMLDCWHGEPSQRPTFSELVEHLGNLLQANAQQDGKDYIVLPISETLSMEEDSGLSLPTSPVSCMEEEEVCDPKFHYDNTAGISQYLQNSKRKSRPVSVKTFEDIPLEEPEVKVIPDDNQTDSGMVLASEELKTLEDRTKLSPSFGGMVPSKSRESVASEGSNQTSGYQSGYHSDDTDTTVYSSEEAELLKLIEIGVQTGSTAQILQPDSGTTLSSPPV
The assay is described as follows: Phosphorylation of the substrate PLCγ by the enzyme KDR in vitro (flashplate technique). The class given is biochemical. The settings on record: Table VII, degrees of activity by IC50 range; read-out: Activity. The essentials:
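GST-fused human KDR cytoplasmic domain (Sf21 baculovirus, ~60% pure; 100 ng/well) phosphorylating 2 μg GST-PLCγ SH2-SH3 fragment in MOPS pH 7.2 with MgCl2/MnCl2, 1 h at 37° C. Started with γ33P-ATP plus cold ATP (2 μM in start solution); flashplate radioactivity. % inhibition vs no-compound control; IC50 from dose-response curves.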
As for `CCSc1ccc(-c2ccc3nc(-c4[nH]nc5ccccc45)[nH]c3c2)cc1` [Example 134, 3-[6-(4-Ethylsulfanyl-phenyl)-1H-benzoimidazol-2-yl]-2H-indazole], the IC50 is greater than 3 µM.
`Fc1ccc(-c2ccc3nc(-c4[nH]nc5ccccc45)[nH]c3c2)c(F)c1` [Example 135, 3-[6-(2,4-Difluoro-phenyl)-1H-benzoimidazol-2-yl]-2H-indazole]: the IC50 fell in the range of 0.3 to 3 µM.
As for `FC(F)(F)Oc1cccc(-c2ccc3nc(-c4[nH]nc5ccccc45)[nH]c3c2)c1` [Example 136, 3-[6-(3-Trifluoromethoxy-phenyl)-1H-benzoimidazol-2-yl]-2H-indazole], the IC50 is greater than 3 µM.
The value for `Cc1cc(F)ccc1-c1ccc2nc(-c3[nH]nc4ccccc34)[nH]c2c1` [Example 137, 3-[6-(4-Fluoro-2-methyl-phenyl)-1H-benzoimidazol-2-yl]-2H-indazole] was 0.3 to 3 µM.
In the case of `Fc1ccc(/C=C/c2ccc3nc(-c4[nH]nc5ccccc45)[nH]c3c2)cc1` [Example 138, 3-{6-[2-(4-Fluoro-phenyl)-vinyl]-1H-benzoimidazol-2-yl}-2H-indazole], the IC50 was greater than 3 µM.
Turning to `Clc1ccc(/C=C/c2ccc3nc(-c4[nH]nc5ccccc45)[nH]c3c2)cc1` [Example 139, 3-{6-[2-(4-Chloro-phenyl)-vinyl]-1H benzoimidazol-2-yl}-2H-indazole], the IC50 was greater than 3 µM.
The value for `O=C(O)CCc1ccc(-c2ccc3nc(-c4[nH]nc5ccccc45)[nH]c3c2)cc1` [Example 140, 3-{4-[2-(2H-Indazol-3-yl)-3H-benzoimidazol-5-yl]-phenyl}-propionic acid] was greater than 3 µM; that for `OCc1ccc(-c2ccc3nc(-c4[nH]nc5ccccc45)[nH]c3c2)cc1` [Example 141, {4-[2-(2H-Indazol-3-yl)-3H-benzoimidazol-5-yl]-phenyl}-methanol] was 0.3 to 3 µM.
Take `c1coc(-c2ccc3nc(-c4[nH]nc5ccccc45)[nH]c3c2)c1` [Example 142, 3-(6-Furan-2-yl-1H-benzoimidazol-2-yl)-2H-indazole]: the IC50 lay within 0.3 to 3 µM.
On to `c1ccc(COc2cccc(-c3ccc4nc(-c5[nH]nc6ccccc56)[nH]c4c3)c2)cc1` [Example 143, 3-[6-(3-Benzyloxy-phenyl)-1H-benzoimidazol-2-yl]-2H-indazole], for which the IC50 was greater than 3 µM.
On to `CC(C)c1ccc(-c2ccc3nc(-c4[nH]nc5ccccc45)[nH]c3c2)cc1` [Example 144, 3-[6-(4-Isopropyl-phenyl)-1H-benzoimidazol-2-yl]-2H-indazole], for which the IC50 is 0.3 to 3 µM.
For `CS(=O)(=O)c1ccc(-c2ccc3nc(-c4[nH]nc5ccccc45)[nH]c3c2)cc1` [Example 145, 3-[6-(4-Methanesulfonyl-phenyl)-1H-benzoimidazol-2-yl]-2H-indazole], the IC50 is greater than 3 µM.
As for `COc1coc(CNC(=O)c2ccc3[nH]c(-c4n[nH]c5ccccc45)nc3c2)cc1=O` [Example 146], the figure is 0.3 to 3 µM.
The value for `CC(=O)Nc1ccc(CNC(=O)c2ccc3[nH]c(-c4n[nH]c5ccccc45)nc3c2)cc1` [Example 147, 2-(1H-Indazol-3-yl)-1H-benzoimidazole-5-carboxylic acid 4-acetylamino-benzylamide] was 0.3 to 3 µM; that for `CNC(=O)c1ccc2[nH]c(-c3n[nH]c4ccccc34)nc2c1` [Example 148, 2-(1H-Indazol-3-yl)-1H-benzoimidazole-5-carboxylic acid methylamide] was 0.3 to 3 µM.
As to `CC(C)NC(=O)c1ccc2[nH]c(-c3n[nH]c4ccccc34)nc2c1` [Example 149, 2-(1H-Indazol-3-yl)-1H-benzoimidazole-5-carboxylic acid isopropylamide], the IC50 is 0.3 to 3 µM.
`O=C(c1ccc2[nH]c(-c3n[nH]c4ccccc34)nc2c1)N1CCOCC1` [Example 150, [2-(1H-Indazol-3-yl)-1H-benzoimidazol-5-yl]-morpholin-4-yl-methanone]: the IC50 fell in the range of 0.3 to 3 µM.
As for `CN1CCN(C(=O)c2ccc3[nH]c(-c4n[nH]c5ccccc45)nc3c2)CC1` [Example 151, [2-(1H-Indazol-3-yl)-1H-benzoimidazol-5-yl]-(4-methyl-piperazin-1-yl)-methanone], the IC50 was 0.3 to 3 µM.
In the case of `CN(Cc1ccccc1)C(=O)c1ccc2[nH]c(-c3n[nH]c4ccccc34)nc2c1` [Example 152, 2-(1H-Indazol-3-yl)-1H-benzoimidazole-5-carboxylic acid benzyl-methyl-amide], the IC50 is 0.3 to 3 µM.
The value for `O=C(NCc1cccc([N+](=O)[O-])c1)c1ccc2[nH]c(-c3n[nH]c4ccccc34)nc2c1` [Example 153, 2-(1H-Indazol-3-yl)-1H-benzoimidazole-5-carboxylic acid 3-nitro-benzylamide] was 0.3 to 3 µM.
As to `O=C(NCc1ccccc1F)c1ccc2[nH]c(-c3n[nH]c4ccccc34)nc2c1` [Example 154, 2-(1H-Indazol-3-yl)-1H-benzoimidazole-5-carboxylic acid 2-fluoro-benzylamide], the IC50 lay in the range of 0.3 to 3 µM.
Turning to `O=C(NCc1ccc(F)cc1F)c1ccc2[nH]c(-c3n[nH]c4ccccc34)nc2c1` [Example 155, 2-(1H-Indazol-3-yl)-1H-benzoimidazole-5-carboxylic acid 2,4-difluoro-benzylamide], the IC50 lay within 0.3 to 3 µM.
On to `O=C(NCc1c(F)cccc1F)c1ccc2[nH]c(-c3n[nH]c4ccccc34)nc2c1` [Example 156, 2-(1H-Indazol-3-yl)-1H-benzoimidazole-5-carboxylic acid 2,6-difluoro-benzylamide], for which the IC50 is 0.3 to 3 µM.
Turning to `O=C(NCc1ccc(Br)cc1F)c1ccc2[nH]c(-c3n[nH]c4ccccc34)nc2c1` [Example 157, 2-(1H-Indazol-3-yl)-1H-benzoimidazole-5-carboxylic acid 4-bromo-2-fluoro-benzylamide], the IC50 was less than 0.3 µM.
Take `O=C(NCc1ccc(Cl)cc1F)c1ccc2[nH]c(-c3n[nH]c4ccccc34)nc2c1` [Example 158, 2-(1H-Indazol-3-yl)-1H-benzoimidazole-5-carboxylic acid 4-chloro-2-fluoro-benzylamide]: the IC50 was in the range of 0.3 to 3 µM.
In the case of `O=C(NCc1ccc(Br)cc1F)c1ccc2[nH]c(-c3n[nH]c4ccccc34)nc2c1` [Example 159, 2-(1H-Indazol-3-yl)-1H-benzoimidazole-5-carboxylic acid 4-bromo-2-fluoro-benzylamide], the IC50 lay within 0.3 to 3 µM.
`O=C(NCc1ccc(F)c(F)c1)c1ccc2[nH]c(-c3n[nH]c4ccccc34)nc2c1` [Example 160, 2-(1H-Indazol-3-yl)-1H-benzoimidazole-5-carboxylic acid 3,4-difluoro-benzylamide]: the IC50 is 0.3 to 3 µM.
With `O=C(NCc1cc(F)c(F)c(F)c1)c1ccc2[nH]c(-c3n[nH]c4ccccc34)nc2c1` [Example 161, 2-(1H-Indazol-3-yl)-1H-benzoimidazole-5-carboxylic acid 3,4,5-trifluoro-benzylamide], the IC50 lay within 0.3 to 3 µM.
As to `O=C(NCc1ccc(-c2ccc(Cl)cc2)cc1)c1ccc2[nH]c(-c3n[nH]c4ccccc34)nc2c1` [Example 162, 2-(1H-Indazol-3-yl)-1H-benzoimidazole-5-carboxylic acid (4′-chloro-biphenyl-4-ylmethyl)-amide], the IC50 is greater than 3 µM.
